Values of other authors in patent US20240207239A1, “COMPOSITION AND PREPARATION METHOD THEREFOR” (priority 2021, published 2024).

Settings: range of pH 1-12

In the case of CNC(=O)c1ccc(N2C(=S)N(c3cnc(C#N)c(C(F)(F)F)c3)C(=O)C23CCC3)cc1F [Apalutamide, 4-[7-(6-cyano-5-trifluoromethylpyridine-3-yl)-8-oxo-6-thioxo-5,7-diazaspiro[3. 4]octan-5-yl]-2-fluoro-N-methylbenzamide], the “solubility in aqueous medium” value is given as “almost insoluble”.
